We go through 1 compound from ChEMBL document CHEMBL1154992, “New steroidal glycosides from the fruits of Tribulus terrestris” (J Nat Prod, 2000).

For this experiment, the system named is SK-MEL. As to the kind of experiment: Cytotoxicity against human SK-MEL cells after 48 hrs by neutral red staining. The experiment is classed as functional, cell-based.

As a reminder, the IC50 is the concentration needed to halve the response being measured. A higher IC50 goes with weaker potency.

In brackets after ≈: the same amount, converted by molar mass.

`C[C@H]1CC[C@@]2(OC1)O[C@H]1C[C@H]3[C@@H]4CC[C@@H]5C[C@@H](O[C@@H]6O[C@H](CO)[C@H](O[C@@H]7O[C@H](CO)[C@@H](O)[C@H](O)[C@H]7O)[C@H](O)[C@H]6O[C@@H]6O[C@@H](C)[C@H](O)[C@@H](O)[C@H]6O)CC[C@]5(C)[C@H]4CC[C@]3(C)[C@H]1[C@@H]2C` registered a half-maximal inhibitory concentration (IC50) of 6.7 µg/mL (≈ 7.55 µM).
